Here are results for 1 compound from patent US8999365B2, “Prevention of bacterial contamination” (priority 2005, dated 2015).

Data set [1] in a line: Physicochemical properties of delmopinol (pKa, solubility of base).
Data set [2] relates to Staphylococcus epidermidis.
Procedure: (§1) Procedure A: The test surfaces were treated with 2 mL of the 2% aqueous solution of delmopinol HCl and left unstirred for 15 minutes at room temperature. All delmopinol solution was removed with a pipette. The wells were then thoroughly rinsed three times with 4 mL of a potassium phosphate buffer, 10 mM, pH 7.2. […] Procedure B: The test surfaces were treated with 2 mL of the 2% aqueous solution of delmopinol HCl and left overnight to dry. Microorganisms
(§2) A fresh bacterial strain of Staphylococcus epidermidis was isolated from skin and stored in milk powder at −80° C. The day before experimental use, bacteria were transferred to blood agar and incubated in an atmosphere of 95% H2 and 5% CO2 at 37° C. overnight. Colony-forming units were collected from the blood agar and suspended in 10 mM potassium phosphate buffer, pH 7.2, to an optical density at 600 nm of 0.4, corresponding to approximately 10^8 cells/mL.
The bacterial viability of the bacterial suspension, indicated by the vitality percentages, was assessed by fluorescence microscopy using the Live/Dead Bacterial Viability method Molecular Probes, Inc. Eugene, Oreg., USA) according to the instructions of the manufacturer. Thus, SYTO 9 (1.5 μL) and propidium iodide (1.5 μL) were mixed with 1 mL of 10 mM phosphate buffer, pH 7.2. Aliquots of 10 μL were added to 10 μL cell suspension and analysed at 1000× for green/LIVE and red/DEAD cells in the fluorescence microscope (Leitz Aristoplan microscope equipped with a halogen lamp and a 470-490 nm excitation filter).
Four mL of the bacterial suspension was added on top of coated and non-coated test surfaces mounted in Petri dishes. The cells were allowed to adhere for 60 min at 37° C. Non-adherent cells were removed by rinsing the surfaces three times with 4 mL of the buffer solution. […] A 10 μL-aliquot of the mixture was added to the surface and analysed after 10 min incubation in the dark. Microscopic images of adherent cells were analysed from 10 fields of each disc. […]
The test system of data set [3] is Staphylococcus epidermidis. In words: Growth of adherent bacteria on treated surfaces in Tryptic Yeast Extract medium. The format is cell-based. The note with it: for Growth after 1 day / Growth after 5 days: cell culture IV, Tryptic Yeast Extract medium, 37° C. As for the experimental part: The ability of bacteria to grow on coated and non-coated surfaces was determined by adding 4 mL of Tryptic Yeast Extract medium to each well and incubating at 37° C.

The subject of data set [4] is Staphylococcus epidermidis. In words: Adhesion assay: total attached cells on delmopinol-coated discs. As to conditions: mean of Exp. I-III.
Procedure: The different materials were obtained as discs with an approximate diameter of 30 mm and a thickness of 1 mm. These discs were then mounted in the bottom of Petri dishes
as §1, §2
Four mL of the bacterial suspension was added on top of coated and non-coated test surfaces mounted in Petri dishes. […] A 10 μL-aliquot of the mixture was added to the surface and analysed after 10 min incubation in the dark. Microscopic images of adherent cells were analysed from 10 fields of each disc. […]
The mark [5] stands for this setting: coated versus non-coated surfaces.

The pKa is the pH at which an ionisable group is half protonated. High values mean a group that holds its proton tightly, low ones a group that gives up its proton readily.

In data set [1], `CCCC(CCC)CCCC1COCCN1CCO` (stereo not shown) [delmopinol, 3-(4-propyl-heptyl)-4-(2-hydroxyethyl) morpholine] returned a pKa of 7.1. Besides, the “percentage viable cells, Mean” value in data set [2] amounted to 9 percentage. Moreover, in data set [2] (setting [5]), the “viability of adherent cells on delmopinol-coated surfaces (conclusion)” value is listed as “significant reduction”. Further, in data set [3] (setting [5]), the “growth of surface-associated bacteria (conclusion)” value was “significantly inhibited growth”. The “Growth after 1 day” value in data set [3] (stainless steel coated) and in data set [3] (titanium coated) was “no” in each case. In addition, the “Growth after 5 days” value in data set [3] (stainless steel coated) and in data set [3] (titanium coated) was “no” each time. For the same compound, the “number of attached cells per mm^2, Mean” value came to 418 cells per mm^2 in data set [4] (stainless steel coated with 2% delmopinol HCl) and 207 cells per mm^2 in data set [4] (titanium coated with 2% delmopinol HCl).
